# Data as given in patent publication US20230091888A1, “HERBICIDE COMBINATIONS COMPRISING GLUFOSINATE AND SELECTED PPO INHIBITORS” (BASF SE, priority 2020, published 2023).
# Legend:
# Assay in all cases: Greenhouse post-emergence weed control, percent injury vs untreated control
# Type in all cases: in vivo
# Details in all cases: 19 DAT
# [1] = tested on: Echinochloa crus-galli (ECHCG)
# [2] = tested on: Amaranthus Palmeri (AMAPA)
# [3] = tested on: Amaranthus tuberculatus (AMATU)
# Galium aparine (GALAP) = tested on: Galium aparine (GALAP)
# [4] = tested on: Ambrosia artemisiifolia (AMBEL)
# Hordeum vulgare (HORVS) = tested on: Hordeum vulgare (HORVS)
molecule,measurement,setting,value
"CP(=O)(O)CCC(N)C(=O)O (racemic) [Glufosinate, (2RS)-2-amino-4-[hydroxy(methyl)phosphinoyl]butyric acid]",inhibition at 50 g/ha,"[1]; Echinochloa crus-galli, 456 h, 50 g ai/ha, read-out: Solo Glufosinate (50 g ai/ha) % activity",10%
same,inhibition at 100 g/ha,"[1]; Echinochloa crus-galli, 456 h, 100 g ai/ha, read-out: Solo Glufosinate (100 g ai/ha) % activity",25%
same,inhibition at 200 g/ha,"[1]; Echinochloa crus-galli, 456 h, 200 g ai/ha, read-out: Solo Glufosinate (200 g ai/ha) % activity",70%
same,inhibition at 50 g/ha,"[2]; Amaranthus palmeri, 456 h, 50 g ai/ha, read-out: Solo Glufosinate (50 g ai/ha) % activity",35%
same,inhibition at 100 g/ha,"[2]; Amaranthus palmeri, 456 h, 100 g ai/ha, read-out: Solo Glufosinate (100 g ai/ha) % activity",30%
same,inhibition at 200 g/ha,"[2]; Amaranthus palmeri, 456 h, 200 g ai/ha, read-out: Solo Glufosinate (200 g ai/ha) % activity",80%
same,inhibition at 50 g/ha,"[3]; Amaranthus tuberculatus, 456 h, 50 g ai/ha, read-out: Solo Glufosinate (50 g ai/ha) % activity",40%
same,inhibition at 100 g/ha,"[3]; Amaranthus tuberculatus, 456 h, 100 g ai/ha, read-out: Solo Glufosinate (100 g ai/ha) % activity",70%
same,inhibition at 200 g/ha,"[3]; Amaranthus tuberculatus, 456 h, 200 g ai/ha, read-out: Solo Glufosinate (200 g ai/ha) % activity",90%
same,inhibition at 50 g/ha,"Galium aparine (GALAP); Galium aparine, 456 h, 50 g ai/ha, read-out: Solo Glufosinate (50 g ai/ha) % activity",30%
same,inhibition at 50 g/ha,"[4]; Ambrosia artemisiifolia, 456 h, 50 g ai/ha, read-out: Solo Glufosinate (50 g ai/ha) % activity",40%
same,inhibition at 100 g/ha,"Hordeum vulgare (HORVS); Hordeum vulgare, 456 h, 100 g ai/ha, read-out: Solo Glufosinate (100 g ai/ha) % activity",0%
same,inhibition at 200 g/ha,"Hordeum vulgare (HORVS); Hordeum vulgare, 456 h, 200 g ai/ha, read-out: Solo Glufosinate (200 g ai/ha) % activity",30%
C#CCN(C)c1c(C#N)cnn1-c1nn2c(c1Cl)CCCC2 [Pyraclonil],Solo pyraclonil (3.125 g ai/ha) % activity,[2]; 3.125 g ai/ha,30%
same,Solo Pyraclonil (6.25 g ai/ha) % activity,[2]; 6.25 g ai/ha,20%
same,Solo pyraclonil (1.5625 g ai/ha) % activity,[3]; 1.5625 g ai/ha,20%
same,Solo Pyraclonil (6.25 g ai/ha) % activity,[3]; 6.25 g ai/ha,35%
same,Solo pyraclonil (1.5625 g ai/ha) % activity,[4]; 1.5625 g ai/ha,25%
same,Solo Pyraclonil (6.25 g ai/ha) % activity,[4]; 6.25 g ai/ha,65%
same,Solo pyraclonil (3.125 g ai/ha) % activity,Hordeum vulgare (HORVS); 3.125 g ai/ha,0%
"N#Cc1cnn(-c2nn3c(c2Cl)CCCC3)c1NCC1CC1 [cyclopyranyl, cyclopyranil]",Solo cyclopyranyl (6.25 g ai/ha) % activity,[1]; 6.25 g ai/ha,25%
same,Solo cyclopyranyl (1.5625 g ai/ha) % activity,[2]; 1.5625 g ai/ha,10%
same,Solo cyclopyranyl (3.125 g ai/ha) % activity,[2]; 3.125 g ai/ha,10%
same,Solo cyclopyranyl (6.25 g ai/ha) % activity,[2]; 6.25 g ai/ha,25%
same,Solo cyclopyranyl (6.25 g ai/ha) % activity,[3]; 6.25 g ai/ha,65%
same,Solo cyclopyranyl (6.25 g ai/ha) % activity,Galium aparine (GALAP); 6.25 g ai/ha,65%
same,Solo cyclopyranyl (6.25 g ai/ha) % activity,Hordeum vulgare (HORVS); 6.25 g ai/ha,15%
Oxadiargyl,Solo Oxadiargyl (3.125 g ai/ha) % activity,[1]; 3.125 g ai/ha,15%
same,Solo Oxadiargyl (3.125 g ai/ha) % activity,[2]; 3.125 g ai/ha,40%
same,Solo Oxadiargyl (6.25 g ai/ha) % activity,[2]; 6.25 g ai/ha,30%
same,Solo Oxadiargyl (6.25 g ai/ha) % activity,[3]; 6.25 g ai/ha,40%
same,Solo Oxadiargyl (3.125 g ai/ha) % activity,[4]; 3.125 g ai/ha,20%
same,Solo Oxadiargyl (6.25 g ai/ha) % activity,[4]; 6.25 g ai/ha,10%
